Patent US4293700A, “2,6-Dimethyl-1,4-dihydropyridine-3,5-dicarboxylic acid esters and method for preparing same” (priority 1978, dated 1981)
Where a name gives a salt, the structure may show the parent alone.

Tests used:
[1] = cited from earlier work
metastases = conditions: in words; cited from earlier work
Solubility = type: physicochemical
Walker carcinosarcoma = test: Antimetastatic activity: life duration of rats with Walker carcinosarcoma; type: in vivo; conditions: for Life duration, % of the control: Walker carcinosarcoma (rats), 10 days; for increase of the life time: rats, after the removal of Walker carcinoma
Experimental: (§1) Antimetastatic properties of esters of 2,6-dimethyl-1,4-dihydropyridine-3,5-dicarboxylic acid have been tested on Walker carcinosarcoma, sarcoma 536 and Lewis pneumocarbinoma using mice and rats as test animals. The preparations were administered for 10 days. Two procedures of the administration of these compounds prior to the removal of the primary tumor and introduction of the compound after the removal of the primary tumor. The efficiency of antimetastatic activity of esters of 2,6-dimethyl-1,4-dihydropyridine-3,5-dicarboxylic acid is assessed by the increase of the life duration of the test animals expressed as percentage of the life duration of the animals administered no preparation and serving as the control.
Thus, disodium salt of carboxylatomethyl ester of 2,6-dimethyl-1,4-dihydropyridine-3,5-dicarboxylic acid administered in doses of 50 and 100 mg/kg during the period after the removal of Walker carcinoma increases the life time of the rest rats by 120 and 93% respectively. […] The effect of the compounds is most pronounced in tests with Walker carbinosarcoma on rats; a high efficiency is also noticed for sarcoma 536 with rats; less pronounced is the effect on Lewis lungs carcinoma with mice. The use of esters of 2,6-dimethyl-1,4-dihydropyridine-3,5-dicarboxylic acid provides no negative effect on physiological functions and behaviour of the test animals.

sarcoma 536 = test: Antimetastatic activity: life duration of rats with sarcoma 536; type: in vivo; conditions: Sarcoma 536 (rats), 10 days
Experimental: as §1

Lewis lungs carcinoma = test: Antimetastatic activity: life duration of mice with Lewis lungs carcinoma; type: in vivo; conditions: after the removal of the primary tumor, 10 days
Experimental: as §1

[2] = after the removal of the primary tumor, daily dose 50 mg/kg
[3] = after the removal of the primary tumor, daily dose 150 mg/kg
[4] = before the removal of the primary tumor, daily dose 100 mg/kg

CC(CN1CC(=O)NC(=O)C1)N1CC(=O)NC(=O)C1 (racemic) [JCFR-159, (±) 1,2-bis(3,5-dioxopiperazin-1-yl)propane]
side effects ([1]; in vivo): causes leucopenia, thrombocytopenia and dyspeptic phenomena
toxicity ([1]; in words): somewhat toxic
LD50 ([1]; species and route not given): 1,000 mg/kg
antimetastatic activity (metastases): certain antimetastic activity

CC1=C(C(=O)OC2CC(C)CCC2C(C)C)CC(C(=O)OC2CC(C)CCC2C(C)C)=C(C)N1 (centres unmarked) [menthyl ester, Menthyl ester of 2,6-dimethyl-1,4-dihydropyridine-3,5-dicarboxylic acid]
solubility in acetone (Solubility; acetone): highly-soluble
solubility in alcohol (Solubility): highly-soluble
solubility in benzene (Solubility; benzene): highly-soluble
solubility in chloroform (Solubility; chloroform): highly-soluble
solubility in water (Solubility): insoluble in water
Life duration, % of the control (Walker carcinosarcoma; prior to the removal of the primary tumor, daily dose 150 mg/kg): 116%
Life duration, % of the control (Walker carcinosarcoma; prior to the removal of the primary tumor, daily dose 300 mg/kg): 165%

CC1=C(C(=O)OCC(=O)O)CC(C(=O)OCC(=O)O)=C(C)N1 [disodium carboxylate-methyl ester, disodium salt of carboxylate-methyl ester of 2,6-dimethyl-1,4-dihydropyridine-3,5-dicarboxylic acid]
solubility in alcohol (Solubility): sparingly soluble in alcohol
solubility in water (Solubility): highly soluble in water
Life duration, % of the control (sarcoma 536; [2]): 129%
Life duration, % of the control (sarcoma 536; [3]): 132%
Life duration, % of the control (sarcoma 536; [4]): 152%
Life duration, % of the control (sarcoma 536; before the removal of the primary tumor, daily dose 150 mg/kg): 138%
Life duration, % of the control (Lewis lungs carcinoma; daily dose 100 mg/kg): 120%
Life duration, % of the control (Lewis lungs carcinoma; daily dose 150 mg/kg): 113%
Life duration, % of the control (Walker carcinosarcoma; [2]): 220%
Life duration, % of the control (Walker carcinosarcoma; after the removal of the primary tumor, daily dose 100 mg/kg): 193%
Life duration, % of the control (Walker carcinosarcoma; [3]): 112%
Life duration, % of the control (Walker carcinosarcoma; before the removal of the primary tumor, daily dose 50 mg/kg): 130%
Life duration, % of the control (Walker carcinosarcoma; [4]): 150%
increase of the life time (Walker carcinosarcoma; 50 mg/kg): 120%
increase of the life time (Walker carcinosarcoma; 100 mg/kg): 93%
